This passage reports TGI and GI50 results from PubChem BioAssay (NCI).

Common to all, as to assay: NCI tumour cell line growth inhibition, 48 h
Experiment [1] deals with COLO 205 colon.
Experiment [2] deals with UACC-257 melanoma.
Experiment [3] relates to SK-MEL-28 melanoma.
The subject of experiment [4] is SN12C renal.
The subject of experiment [5] is SNB-75 CNS.
In experiment [6] the test system is SF-295 CNS.
Experiment [7] has as its system HCT-116 colon.
Experiment [8] concerns MCF7 breast.
For experiment [9], the system named is DU-145 prostate.

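Assay format: 96-well plates, 48-hour exposure. GI50 marks 50% less growth. The concentration for full growth arrest is given as TGI.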

With `CC(C)N(C(=O)c1cccc(C(=O)N(C(C)C)C(C)C)c1)C(C)C`, the TGI in experiment [1], in experiment [2], in experiment [3], in experiment [4], in experiment [5] and in [6] was above 100 µM throughout. Besides, the TGI in experiment [7] was above 100 µM.
`C=CO/N=[N+](\[O-])N(CC)CC`: the TGI in experiment [1], in experiment [2], in experiment [3], in [4], in experiment [5] and in [6] was above 100 µM throughout. Besides, the TGI in experiment [8], in [7] and in [9] was above 100 µM throughout.
With `COC(=O)CCC(NC(=S)N/N=C(\C)c1ccc[nH]1)C(=O)OC` (stereo not given), the TGI in experiment [1], in experiment [2], in experiment [3], in [4], in experiment [5] and in experiment [6] was above 100 µM in each case. This molecule registered a TGI in experiment [7] above 100 µM.
`CCC[CH2][Sn]([CH2]CCC)([O]C(=O)c1cc(OC)c(OC)cc1OC)[O][Sn]([CH2]CCC)([CH2]CCC)[O]C(=O)c1cc(OC)c(OC)cc1OC`: the GI50 in experiment [1] is 0.381 µM; in [2], 0.276 µM; in experiment [3], 0.297 µM; in experiment [4], 0.532 µM; in experiment [5], 0.124 µM; in experiment [6], 1.1 µM. In addition, in experiment [7], the GI50 was 0.67 µM. Moreover, the TGI amounted to 1.32 µM in [1]; 0.883 µM in [2]; 1.02 µM in [3]; 1.72 µM in experiment [4]; 0.7 µM in experiment [5]; 2.41 µM in experiment [6]. In experiment [7], this molecule gave a TGI of 1.82 µM.
As for `C/C(CC(=O)NCCc1ccccc1)=N\NS(=O)(=O)c1ccc(C)cc1`, the TGI in experiment [1], in [2], in experiment [3], in [5], in [6] and in [7] was above 100 µM in each case.
In the case of `O=C(/C=C(\O)C(=O)O)/C=C(\O)c1ccccc1`, the GI50 in experiment [1], in [2], in experiment [3], in experiment [4], in [5] and in [7] was above 1 µM each time. Besides, the TGI in experiment [1] was above 25.9 µM; in experiment [2], above 100 µM; in [3], above 1 µM; in experiment [4], above 100 µM; in experiment [5], above 54.9 µM; in experiment [6] it was above 100 µM. The molecule also gave a TGI in [7] above 100 µM.
For `Oc1c(C(Nc2ccccc2Br)c2ccccc2)ccc2cccnc12` (stereo not given), the GI50 in [1] is 2.75 µM; in experiment [2], 1.88 µM; in [3], 2.46 µM; in [4] it was 2.68 µM; in [5], 2.82 µM; in experiment [6] it was 1.65 µM. Moreover, the GI50 in experiment [8] is 1.56 µM; in [7] it was 3.13 µM; in [9] it was 4.81 µM. In addition, the TGI in experiment [1] amounted to 36.6 µM; in experiment [2], 8.48 µM; in [3], 14.9 µM; in experiment [4], 35.1 µM; in [5], 48.6 µM; in [6], 47.3 µM. In addition, the TGI was 65.1 µM in experiment [8], 18 µM in experiment [7] and above 100 µM in experiment [9].
For `O=c1cc(-c2ccccn2)[nH]c2cccc(F)c12`, the TGI in [1], in experiment [2], in experiment [3], in [4], in [5] and in experiment [6] was above 100 µM throughout.
Take `Cc1cc2c(c(C(N)=O)c1C)-c1cccc(F)c1C2=O`: the TGI in experiment [1] is above 100 µM; in experiment [2], above 100 µM; in experiment [3], above 100 µM; in [4], above 100 µM; in experiment [5], 66.5 µM; in experiment [6] it was above 100 µM. In [7], the TGI is above 100 µM.
`COc1cc(-c2nc3ccccc3s2)ccc1OCCCCOc1cc2c(cc1OC)C(=O)N1CCC[C@H]1C=N2`: the GI50 in experiment [1] was 0.697 µM; in experiment [2], 2.49 µM; in experiment [3], 1.99 µM; in experiment [4], 1.39 µM; in [5], 1.4 µM; in experiment [6], 2.02 µM. For the same molecule, the GI50 in experiment [8] was 0.471 µM; in experiment [7], 0.57 µM; in experiment [9], 0.832 µM. The TGI in [1] was 2.26 µM; in experiment [2], 5.78 µM; in [3] it was 4.51 µM; in [4] it was 3.87 µM; in [5] it was 2.84 µM; in experiment [6] it was 10.3 µM. Besides, the TGI in [8] stood at 3.57 µM; in experiment [7], 2.19 µM; in experiment [9] it was 6.06 µM.
In the case of `COc1ccccc1N=Nc1c(-c2ccccc2)nn(C(=O)CC(=O)Nc2cccc(C)c2)c1-c1ccccc1`, the TGI was above 100 µM in experiment [1]; above 100 µM in experiment [2]; above 100 µM in [3]; above 100 µM in experiment [4]; 93.5 µM in experiment [5]; above 100 µM in experiment [6]. For the same molecule, the TGI in [7] is above 100 µM.
For the molecule `[N-]=[N+]=NC(c1cn(C2CC(O)C(CO)O2)c(=O)[nH]c1=O)C(Cl)Br` (stereo not given), the TGI in [1], in experiment [3], in experiment [4], in experiment [5], in [6] and in experiment [7] was above 100 µM in each case.
With `O=c1cccccc1[O-].O=c1cccccc1[O-].O=c1cccccc1[O-].[Eu+3]`, the TGI was 99.6 µM in experiment [2]; above 100 µM in [3]; above 100 µM in experiment [4]; 79 µM in [5]; above 100 µM in [6]; 76.7 µM in experiment [7]. Moreover, the GI50 in experiment [4] is 56.6 µM.
